Experimental findings from ChEMBL document CHEMBL1641539 (Bioorg Med Chem Lett, 2011) are described below.

In assay [1] the target is Tyrosine-protein kinase receptor UFO (Homo sapiens) (UniProt P30530). Put plainly: Inhibition of human Axl at 10 uM after 60 mins by TR-FRET assay; values are per cent of control.
Assay [2] addresses Ribosomal protein S6 kinase beta-1 (Homo sapiens) (UniProt P23443). Put plainly: Inhibition of human p70S6K at 10 uM after 60 mins by TR-FRET assay; values are per cent of control. A general note: In TR-FRET formats the signal depends on donor and acceptor labels being close together.
For assay [3], the target named is T1, Serine/threonine-protein kinase 3 (Homo sapiens) (UniProt Q13188).
T1 sequence (whole entry): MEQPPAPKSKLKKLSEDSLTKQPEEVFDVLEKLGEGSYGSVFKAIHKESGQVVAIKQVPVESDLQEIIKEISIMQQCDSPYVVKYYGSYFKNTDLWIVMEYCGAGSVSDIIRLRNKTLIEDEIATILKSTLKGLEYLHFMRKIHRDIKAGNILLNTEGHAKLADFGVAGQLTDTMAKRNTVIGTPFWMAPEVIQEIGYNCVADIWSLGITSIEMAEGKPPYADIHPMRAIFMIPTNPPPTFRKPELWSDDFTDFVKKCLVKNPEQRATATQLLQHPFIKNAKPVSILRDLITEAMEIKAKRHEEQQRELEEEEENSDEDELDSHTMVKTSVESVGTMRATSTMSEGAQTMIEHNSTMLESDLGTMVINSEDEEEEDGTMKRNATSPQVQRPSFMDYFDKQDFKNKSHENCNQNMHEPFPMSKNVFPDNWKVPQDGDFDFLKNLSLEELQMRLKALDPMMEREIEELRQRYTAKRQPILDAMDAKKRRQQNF
Put plainly: Inhibition of human MST2 at 10 uM after 60 mins by TR-FRET assay. The conditions noted are these: values are per cent of control.

Assay [4] deals with Serine/threonine-protein kinase Nek2 (Homo sapiens) (UniProt P51955). Put plainly: Inhibition of human NEK2 at 10 uM after 60 mins by TR-FRET assay; values are per cent of control.
Assay [5] has as its target Death-associated protein kinase 3 (Homo sapiens) (UniProt O43293). Put plainly: Inhibition of human ZIPK at 10 uM after 60 mins by TR-FRET assay; values are per cent of control.
Assay [6] deals with Ribosomal protein S6 kinase alpha-6 (Homo sapiens) (UniProt Q9UK32). Put plainly: Inhibition of human Rsk4 at 10 uM after 60 mins by TR-FRET assay. The conditions noted are these: values are per cent of control.
For assay [7], the target named is Macrophage-stimulating protein receptor (Homo sapiens) (UniProt Q04912). The experiment in a line: Inhibition of human Ron at 10 uM after 60 mins by TR-FRET assay. The settings on record: values are per cent of control.
Sequence of Macrophage-stimulating protein receptor (Homo sapiens) (Q04912 25-304 limits assumed): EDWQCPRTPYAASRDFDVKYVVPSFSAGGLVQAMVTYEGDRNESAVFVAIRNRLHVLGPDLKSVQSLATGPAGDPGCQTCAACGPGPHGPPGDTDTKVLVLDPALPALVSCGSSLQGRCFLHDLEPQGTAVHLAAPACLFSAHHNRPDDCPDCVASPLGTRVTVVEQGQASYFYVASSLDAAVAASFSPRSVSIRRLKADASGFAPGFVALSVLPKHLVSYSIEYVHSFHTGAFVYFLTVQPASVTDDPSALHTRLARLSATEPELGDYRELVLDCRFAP
Sequence of Macrophage-stimulating protein receptor (Homo sapiens) (Q04912 310-1400 limits assumed): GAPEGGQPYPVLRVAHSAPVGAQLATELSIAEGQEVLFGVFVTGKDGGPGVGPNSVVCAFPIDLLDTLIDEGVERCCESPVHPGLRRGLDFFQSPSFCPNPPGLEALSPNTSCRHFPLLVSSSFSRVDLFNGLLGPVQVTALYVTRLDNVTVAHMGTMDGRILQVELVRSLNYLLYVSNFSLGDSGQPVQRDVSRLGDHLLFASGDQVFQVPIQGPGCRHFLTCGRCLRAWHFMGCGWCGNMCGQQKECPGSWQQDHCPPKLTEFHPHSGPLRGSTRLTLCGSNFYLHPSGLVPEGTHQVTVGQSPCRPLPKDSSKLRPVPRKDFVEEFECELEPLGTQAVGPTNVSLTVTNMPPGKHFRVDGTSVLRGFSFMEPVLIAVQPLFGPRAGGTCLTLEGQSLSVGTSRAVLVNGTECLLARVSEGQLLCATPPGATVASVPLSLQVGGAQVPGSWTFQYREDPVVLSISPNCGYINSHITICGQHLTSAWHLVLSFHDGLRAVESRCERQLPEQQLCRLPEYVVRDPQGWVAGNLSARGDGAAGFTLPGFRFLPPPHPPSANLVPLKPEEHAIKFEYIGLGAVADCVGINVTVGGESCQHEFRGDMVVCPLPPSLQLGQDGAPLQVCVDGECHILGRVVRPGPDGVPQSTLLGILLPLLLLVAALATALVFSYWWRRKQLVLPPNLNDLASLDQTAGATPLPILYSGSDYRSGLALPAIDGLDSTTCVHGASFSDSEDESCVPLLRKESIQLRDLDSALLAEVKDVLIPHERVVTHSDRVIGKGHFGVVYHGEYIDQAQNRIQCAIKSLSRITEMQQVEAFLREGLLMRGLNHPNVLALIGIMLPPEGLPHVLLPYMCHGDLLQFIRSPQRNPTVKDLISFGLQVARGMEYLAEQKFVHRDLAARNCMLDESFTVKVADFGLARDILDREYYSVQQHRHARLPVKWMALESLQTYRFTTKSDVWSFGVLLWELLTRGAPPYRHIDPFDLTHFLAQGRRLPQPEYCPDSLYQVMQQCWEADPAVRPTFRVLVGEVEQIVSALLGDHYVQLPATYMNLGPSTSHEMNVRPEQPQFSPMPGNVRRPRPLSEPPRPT
The target of assay [8] is Serine/threonine-protein kinase NLK (Homo sapiens) (UniProt Q9UBE8). Put plainly: Inhibition of human NLK at 10 uM after 60 mins by TR-FRET assay; values are per cent of control.
For assay [9], the target named is Serine/threonine-protein kinase PAK 4 (Homo sapiens) (UniProt O96013). The experiment in a line: Inhibition of human PAK4 at 10 uM after 60 mins by TR-FRET assay; values are per cent of control.
Assay [10] deals with Serine/threonine-protein kinase pim-2 (Homo sapiens) (UniProt Q9P1W9). The experiment in a line: Inhibition of human Pim-2 at 10 uM after 60 mins by TR-FRET assay; values are per cent of control.
Assay [11] has as its target Calcium/calmodulin-dependent protein kinase type 1D (Homo sapiens) (UniProt Q8IU85). The experiment in a line: Inhibition of human CaMK1delta at 10 uM after 60 mins by TR-FRET assay; values are per cent of control.
Assay [12] has as its target Tyrosine-protein kinase Fes/Fps (Homo sapiens) (UniProt P07332). Put plainly: Inhibition of human Fes at 10 uM after 60 mins by TR-FRET assay; values are per cent of control.
In assay [13] the target is Serine/threonine-protein kinase PAK 2 (Homo sapiens) (UniProt Q13177). The experiment in a line: Inhibition of human PAK2 at 10 uM after 60 mins by TR-FRET assay; values are per cent of control.
Sequence of Serine/threonine-protein kinase PAK 2 (Homo sapiens) (Q13177 whole entry): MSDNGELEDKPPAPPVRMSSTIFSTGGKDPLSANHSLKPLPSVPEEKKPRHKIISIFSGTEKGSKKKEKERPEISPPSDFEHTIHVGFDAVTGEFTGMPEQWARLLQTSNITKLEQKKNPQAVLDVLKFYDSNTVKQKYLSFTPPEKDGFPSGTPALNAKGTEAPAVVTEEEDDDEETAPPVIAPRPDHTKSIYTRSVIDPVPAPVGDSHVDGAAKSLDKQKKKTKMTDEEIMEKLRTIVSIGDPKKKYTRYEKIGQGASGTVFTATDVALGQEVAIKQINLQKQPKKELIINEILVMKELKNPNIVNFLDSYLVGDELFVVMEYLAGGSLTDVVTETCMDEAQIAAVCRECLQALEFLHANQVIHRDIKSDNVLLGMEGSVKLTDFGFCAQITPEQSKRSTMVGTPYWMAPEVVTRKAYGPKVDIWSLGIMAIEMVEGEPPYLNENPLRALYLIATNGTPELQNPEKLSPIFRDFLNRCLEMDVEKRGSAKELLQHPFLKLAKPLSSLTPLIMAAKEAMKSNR
Assay [14] concerns the target Vascular endothelial growth factor receptor 1 (Homo sapiens) (UniProt P17948). Put plainly: Inhibition of human Flt1 at 10 uM after 60 mins by TR-FRET assay. The conditions noted are these: values are per cent of control.
The target of assay [15] is MAP kinase-interacting serine/threonine-protein kinase 2 (Homo sapiens) (UniProt Q9HBH9). The experiment in a line: Inhibition of human Mnk2 at 10 uM after 60 mins by TR-FRET assay; values are per cent of control.
The target of assay [16] is Casein kinase I isoform gamma-2 (Homo sapiens) (UniProt P78368). The experiment in a line: Inhibition of human CK1gamma2 at 10 uM after 60 mins by TR-FRET assay; values are per cent of control.
Sequence of Casein kinase I isoform gamma-2 (Homo sapiens) (P78368 whole entry, looked up, canonical isoform): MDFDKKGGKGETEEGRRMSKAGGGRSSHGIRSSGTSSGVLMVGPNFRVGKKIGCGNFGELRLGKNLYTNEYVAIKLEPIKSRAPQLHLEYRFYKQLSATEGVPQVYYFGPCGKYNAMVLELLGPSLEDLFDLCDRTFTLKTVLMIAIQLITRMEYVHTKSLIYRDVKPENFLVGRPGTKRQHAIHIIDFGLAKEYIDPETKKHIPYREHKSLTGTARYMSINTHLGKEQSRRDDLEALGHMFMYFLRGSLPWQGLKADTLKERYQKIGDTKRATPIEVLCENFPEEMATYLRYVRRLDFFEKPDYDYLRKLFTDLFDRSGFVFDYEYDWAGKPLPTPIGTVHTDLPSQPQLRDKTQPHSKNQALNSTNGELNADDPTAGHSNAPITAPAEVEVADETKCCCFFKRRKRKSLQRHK
The target in assay [17] is Serine/threonine-protein kinase TAO1 (Homo sapiens) (UniProt Q7L7X3). The experiment in a line: Inhibition of human TAO1 at 10 uM after 60 mins by TR-FRET assay; values are per cent of control.
Assay [18] concerns the target Homeodomain-interacting protein kinase 1 (Homo sapiens) (UniProt Q86Z02). Put plainly: Inhibition of human HIPK1 at 10 uM after 60 mins by TR-FRET assay; values are per cent of control.
For assay [19], the target named is Serine/threonine-protein kinase 10 (Homo sapiens) (UniProt O94804). The experiment in a line: Inhibition of human LOK at 10 uM after 60 mins by TR-FRET assay. The conditions noted are these: values are per cent of control.
Sequence of Serine/threonine-protein kinase 10 (Homo sapiens) (O94804 whole entry, looked up): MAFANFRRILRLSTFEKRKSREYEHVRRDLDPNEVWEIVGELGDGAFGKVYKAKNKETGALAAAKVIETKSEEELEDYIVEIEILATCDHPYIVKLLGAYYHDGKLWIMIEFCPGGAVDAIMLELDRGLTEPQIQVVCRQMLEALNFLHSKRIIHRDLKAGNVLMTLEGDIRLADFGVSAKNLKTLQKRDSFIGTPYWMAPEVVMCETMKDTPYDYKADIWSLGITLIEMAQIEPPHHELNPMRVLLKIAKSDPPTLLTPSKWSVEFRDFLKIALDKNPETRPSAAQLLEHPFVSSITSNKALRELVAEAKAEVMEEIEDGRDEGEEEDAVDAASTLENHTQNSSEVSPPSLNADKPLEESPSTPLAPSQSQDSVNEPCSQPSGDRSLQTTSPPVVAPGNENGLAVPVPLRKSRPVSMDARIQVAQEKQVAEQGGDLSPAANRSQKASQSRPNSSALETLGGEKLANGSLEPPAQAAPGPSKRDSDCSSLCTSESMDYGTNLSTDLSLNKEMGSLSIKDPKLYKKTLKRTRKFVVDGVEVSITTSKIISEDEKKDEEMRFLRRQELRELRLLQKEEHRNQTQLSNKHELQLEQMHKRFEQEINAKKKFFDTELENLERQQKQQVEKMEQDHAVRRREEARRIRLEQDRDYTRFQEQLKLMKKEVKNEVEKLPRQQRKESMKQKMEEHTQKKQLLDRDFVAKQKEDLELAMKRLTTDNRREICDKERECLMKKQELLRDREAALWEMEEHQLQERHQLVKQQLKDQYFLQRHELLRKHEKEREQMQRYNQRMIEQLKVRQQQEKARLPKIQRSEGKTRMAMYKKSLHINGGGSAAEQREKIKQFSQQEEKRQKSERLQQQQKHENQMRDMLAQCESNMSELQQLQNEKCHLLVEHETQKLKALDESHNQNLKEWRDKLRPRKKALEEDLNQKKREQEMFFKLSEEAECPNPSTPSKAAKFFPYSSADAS
For assay [20], the target named is Receptor-interacting serine/threonine-protein kinase 2 (Homo sapiens) (UniProt O43353). Put plainly: Inhibition of human RIPK2 at 10 uM after 60 mins by TR-FRET assay; values are per cent of control.
Assay [21] deals with Testis-specific serine/threonine-protein kinase 1 (Homo sapiens) (UniProt Q9BXA7). The experiment in a line: Inhibition of human TSSK1 at 10 uM after 60 mins by TR-FRET assay; values are per cent of control.
Sequence of Testis-specific serine/threonine-protein kinase 1 (Homo sapiens) (Q9BXA7 whole entry): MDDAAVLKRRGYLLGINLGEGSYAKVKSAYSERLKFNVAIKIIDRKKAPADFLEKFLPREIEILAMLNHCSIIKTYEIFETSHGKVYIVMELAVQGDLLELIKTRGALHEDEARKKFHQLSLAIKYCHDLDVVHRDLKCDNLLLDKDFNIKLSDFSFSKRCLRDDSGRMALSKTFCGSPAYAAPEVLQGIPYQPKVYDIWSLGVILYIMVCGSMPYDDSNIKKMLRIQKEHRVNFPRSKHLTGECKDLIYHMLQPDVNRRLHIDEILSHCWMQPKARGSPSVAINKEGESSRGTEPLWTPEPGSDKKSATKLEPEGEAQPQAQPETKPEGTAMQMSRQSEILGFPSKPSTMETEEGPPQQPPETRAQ

Sequence of Tyrosine-protein kinase Fes/Fps (Homo sapiens) (P07332 whole entry): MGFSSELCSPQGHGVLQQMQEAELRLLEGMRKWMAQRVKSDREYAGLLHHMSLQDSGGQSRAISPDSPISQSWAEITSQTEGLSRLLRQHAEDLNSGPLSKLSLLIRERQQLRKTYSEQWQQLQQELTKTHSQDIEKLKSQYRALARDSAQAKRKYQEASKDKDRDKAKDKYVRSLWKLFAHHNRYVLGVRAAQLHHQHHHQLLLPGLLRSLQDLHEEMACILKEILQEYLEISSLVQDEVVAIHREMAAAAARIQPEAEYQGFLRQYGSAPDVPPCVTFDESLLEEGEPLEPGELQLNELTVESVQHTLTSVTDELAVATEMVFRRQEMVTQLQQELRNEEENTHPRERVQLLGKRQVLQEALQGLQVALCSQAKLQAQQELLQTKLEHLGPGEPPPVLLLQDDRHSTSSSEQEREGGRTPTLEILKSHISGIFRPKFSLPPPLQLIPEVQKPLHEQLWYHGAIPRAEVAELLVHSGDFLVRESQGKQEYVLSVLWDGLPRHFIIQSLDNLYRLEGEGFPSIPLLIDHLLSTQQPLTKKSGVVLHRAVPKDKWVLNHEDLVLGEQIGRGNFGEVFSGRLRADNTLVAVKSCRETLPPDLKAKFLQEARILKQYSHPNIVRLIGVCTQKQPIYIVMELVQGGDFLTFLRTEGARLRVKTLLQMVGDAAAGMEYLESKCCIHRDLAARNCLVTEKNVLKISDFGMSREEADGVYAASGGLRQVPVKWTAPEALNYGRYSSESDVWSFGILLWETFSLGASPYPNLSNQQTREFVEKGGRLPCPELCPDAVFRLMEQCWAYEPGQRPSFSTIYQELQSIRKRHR
Sequence of Calcium/calmodulin-dependent protein kinase type 1D (Homo sapiens) (Q8IU85 whole entry, looked up): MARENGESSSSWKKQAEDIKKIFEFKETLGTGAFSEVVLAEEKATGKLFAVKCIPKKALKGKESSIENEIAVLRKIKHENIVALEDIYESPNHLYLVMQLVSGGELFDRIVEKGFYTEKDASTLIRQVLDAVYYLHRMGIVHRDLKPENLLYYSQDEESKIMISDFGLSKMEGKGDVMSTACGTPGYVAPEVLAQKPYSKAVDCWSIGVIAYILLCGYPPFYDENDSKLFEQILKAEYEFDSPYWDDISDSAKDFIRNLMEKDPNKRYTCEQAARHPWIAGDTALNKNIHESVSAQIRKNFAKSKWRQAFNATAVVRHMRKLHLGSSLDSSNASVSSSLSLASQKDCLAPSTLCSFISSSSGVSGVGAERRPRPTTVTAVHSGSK

In the case of `S=c1[nH]nc(-c2ccncc2)n1-c1ccc2ccccc2c1`, the residual activity amounted to 110% in [1]; 102% in assay [2]; 103% in assay [3]; 110% in assay [4]; 103% in assay [5]; 109% in assay [6]. For the same compound, the residual activity in assay [7] was 110%; in assay [8], 114%; in assay [9], 112%; in assay [10], 111%; in [11] it was 104%; in [12], 97%. The residual activity in assay [13] came out at 108%; in assay [14] it was 107%; in assay [15] it was 112%; in [16] it was 99%; in assay [17], 104%; in [18], 110%. Moreover, the residual activity in [19] worked out at 89%; in assay [20], 111%; in assay [21], 111%.
